# Measured values published in patent US7074778B2, “Asthma associated factors as targets for treating atopic allergies including asthma and related disorders” (Genaera Corporation, priority 1999, dated 2006).
# Where two headings read alike, the source gives them in different places.
# Columns and labels:
# [1] = tested on: mitogen or antigen stimulated murine or human lymphocytes; assay: PBMC proliferation assay (tritiated thymidine incorporation); format: cell-based; conditions: for IC50: Homo sapiens, Lymphocyte
# Experimental: (§1) Immunomodulatory 3-aminosteroids (FIGS. 3–7 and Table I) were identified in vitro based on their ability to inhibit homo- or hetero-typic aggregation and subsequent proliferation of mitogen or antigen stimulated murine or human lymphocytes. Human or mouse lymphocytes were isolated from peripheral blood by Ficoll-Hypaque as described (Stoeckert et al., (1990) Exp. Hematol. 18. 1164–1170). For mitogen stimulation, 1×10^5 cells per well were plated in varying amounts of 3-aminosteroid compounds and assayed for aggregation and proliferation after twelve hours of stimulation by PHA-PMA mitogens. […] For antigen stimulation, lymphocytes were isolated from BALBc mice which had been sensitized to Aspergillus fumigatus antigen for three weeks and plated at 1×10^5 cells per well with or without 100 units of Aspergillus fulmigatus antigen. Cells were grown for three days and then scored for cellular aggregates and proliferation as described above in the presence or absence of increasing amounts of Compound-B or analogue compounds. […] Similar results were obtained in assays using antigen mediated response to compounds (not shown). […] All of the active compounds shown in Table I as well as rational modifications of these compounds as depicted in FIGS. 8–10 are embodiments of the invention
# [2] = tested on: mitogen or antigen stimulated murine or human lymphocytes; assay: Lymphocyte aggregation assay (PHA-PMA mitogen stimulated); format: cell-based; conditions: aggregates of greater than 100 cells, PHA-PMA stimulation; for minimal effective concentration: Homo sapiens, Lymphocyte, 12 h, read-out: Aggregation Assay Minimum Effective Conc.
# Experimental: as §1
# D2 naive mice = assay: Bronchial hyperresponsiveness in D2 naive mice (APTI); format: in vivo, mouse; conditions: ip, FIG. 14
# Experimental: DBA2, C57BL6 or B6D2F1 mice, five to six weeks of age, were obtained from the National Cancer Institute or Jackson Laboratories. Animals were housed in high-efficiency particulate filtered air laminar flow hoods in a virus and antigen free facility and allowed free access to pelleted rodent chow and water for three to seven days prior to experimental manipulation. The animal facilities were maintained at 22° C. and the light:dark cycle is automatically controlled (10:14 hour cycle).
# Phenotyping and efficacy of pretreatment. Animals either received no pretreatment or were sensitized by nasal aspiration of Aspergillus fumigatus antigen to assess the effect on bronchial hyperresponsiveness, bronchoalveolar lavage and serum IgE. Mice were challenged with Aspergillus or saline intranasally (Monday, Wednesday and Friday for three weeks) and phenotyped twenty-four hours after the last dose. The effect of pretreatment by aminosteroids was used to assess the effect of down-regulating the IL-9 pathway in mice. To determine the bronchoconstrictor response, respiratory system pressure was measured at the trachea and recorded before and during exposure to the drug. Mice were anesthetized and instrumented as previously described. (Kleeberger et al., (1990) Am. J. Physiol. 258, L313–320; Levitt et al., (1995) Clin. Exp. Allergy 25, 61–63; Ewart et al., (1995) J. Appl. Physiol. 79, 560–566). Airway responsiveness was measured to one or more of the following: 5-hydroxytryptamine, acetylcholine, atracurium or a substance-P analogue. A simple and repeatable measure of the change in peak inspiratory pressure following bronchoconstrictor challenge was used which has been termed the Airway Pressure Time Index (APTI). The APTI was assessed by the change in peak respiratory pressure integrated from the time of injection until the peak pressure returns to baseline or plateau.
# Active compounds identified in vitro were tested in vivo for their ability to suppress airway hyperresponsiveness, lung eosinophilia and serum Ig levels using assays described above. […]
# [3] = FIG. 11 and FIG. 12, mitogen-stimulated lymphocytes, read-out: IC50 for suppression of lymphocyte aggregation and proliferation
# [4] = tritiated thymidine incorporation
# [5] = tritiated thymidine incorporation, read-out: PBMC Proliferation ASSAY IC50
SMILES,minimal effective concentration [2],"IC50 [1, 5]",also measured
COC(=O)CC[C@H](C)C1CCC2C3CC[C@@H]4C[C@@H](NCCCNCCCCNCCCN)CC[C@]4(C)C3CC[C@@]21C (some centres unmarked) [Compound-D],10 µg/mL,,"IC50 [1, 3]: 10 µg/mL; suppression of bronchial hyperresponsiveness (D2 naive mice): effective in suppressing bronchial hyperresponsiveness"
COC(=O)CC[C@@H](C)C1CCC2C3C[C@@H](O)[C@H]4C[C@H](NCCN)CC[C@]4(C)C3CC[C@@]21C (some centres unmarked) [AG],10 µg/mL,,
C[C@H](CCC(=O)O)C1CCC2C3CC[C@@H]4C[C@H](NCCN)CC[C@]4(C)C3C[C@H](O)[C@@]21C (some centres unmarked) [C],> 10 µg/mL,,
C[C@@H](COc1ccccn1)C1CCC2C3CC[C@@H]4C[C@@H](NCCN)CC[C@]4(C)C3CC[C@@]21C (some centres unmarked) [Compound-O],,,"PBMC Proliferation ASSAY IC50 [1, 4]: 0.25 µg/mL; Aggregation Assay Minimum Effective Conc. [2]: 10 µg/mL"
COC(=O)CC[C@@H](C)C1CCC2C3C(CC[C@@]21C)[C@@]1(C)CC[C@H](N2CCNCC2)C[C@H]1C[C@H]3O (some centres unmarked) [AE],10 µg/mL,0.28 µg/mL,
COC(=O)CC[C@H](C)C1CCC2C3CC[C@@H]4C[C@@H](NCCN5CCCC5)CC[C@]4(C)C3C[C@@H](O)[C@@]21C (some centres unmarked) [W],10 µg/mL,,
C[C@H](CC1CCOC1=O)C1CCC2C3CC[C@H]4C[C@@H](N5CCCNCC5)CC[C@]4(C)C3CC[C@@]21C (some centres unmarked) [Compound-M],10 µg/mL,,
C[C@@H](COc1ccccn1)C1CCC2C3CC[C@@H]4C[C@@H](N5CCNCC5)CC[C@]4(C)C3CC[C@@]21C (some centres unmarked) [Compound-P],> 10 µg/mL,,
COC(=O)CC[C@@H](C)C1CCC2C3CC[C@@H]4C[C@@H](NCCN)CC[C@]4(C)C3C[C@H](O)[C@@]21C (some centres unmarked) [AH],1 µg/mL,0.1 µg/mL,
C[C@@H](COc1ccccn1)C1CCC2C3CC[C@@H]4C[C@@H](NCCN)CC[C@]4(C)C3CC[C@@]21C (some centres unmarked) [Compound-N],,,"PBMC Proliferation ASSAY IC50 [1, 4]: 0.06 µg/mL; Aggregation Assay Minimum Effective Conc. [2]: 1 to 10 µg/mL"
CC(C)OC(=O)CC[C@H](C)C1CCC2C3C(O)C[C@@H]4C[C@@H](NCCN)CC[C@]4(C)C3CC[C@@]21C (some centres unmarked) [U],,0.4 µg/mL,Aggregation Assay Minimum Effective Conc. [2]: 1 to 10 µg/mL
C[C@H](CC1CCOC1=O)C1CCC2C3CC[C@H]4C[C@@H](NCCN)CC[C@]4(C)C3CC[C@@]21C (some centres unmarked) [Compound-J],1 µg/mL,0.03 µg/mL,
COC(=O)CC[C@H](C)C1CCC2C3C(CC[C@@]21C)[C@@]1(C)CC[C@H](NCCN)C[C@H]1C[C@@H]3OC(C)=O (some centres unmarked) [AD],10 µg/mL,0.29 µg/mL,
COC(=O)CC[C@H](C)C1CCC2C3CC[C@@H]4C[C@@H](NCCN)CC[C@]4(C)C3CC[C@@]21C (some centres unmarked) [S],10 µg/mL,< 0.1 µg/mL,toxicity remark in PBMC Proliferation ASSAY [1]: toxic
COC(=O)CC[C@H](C)C1CCC2C3CC[C@@H]4C[C@@H](N)CC[C@]4(C)C3C[C@@H](O)[C@@]21C (some centres unmarked) [AB],10 µg/mL,2.54 µg/mL,
COC(=O)CC[C@H](C)C1CCC2C3CC[C@@H]4C[C@@H](NCCNC(C)C)CC[C@]4(C)C3C[C@@H](O)[C@@]21C (some centres unmarked) [AA],10 µg/mL,0.42 µg/mL,
CC(C)OC(=O)CC[C@H](C)C1CCC2C3C(O)C[C@@H]4C[C@@H](NCCN)CC[C@]4(C)C3CC[C@@]21C (some centres unmarked) [V],,,"PBMC Proliferation ASSAY IC50 [1, 4]: 0.41 µg/mL; Aggregation Assay Minimum Effective Conc. [2]: 10 µg/mL"
C[C@@H](CNS(C)(=O)=O)C1CCC2C3CC[C@@H]4C[C@@H](NCCN)CC[C@]4(C)C3CC[C@@]21C (some centres unmarked) [Compound-F],,2.88 µg/mL,
COC(=O)CC[C@H](C)C1CCC2C3CC[C@@H]4C[C@@H](NCCNc5ccccc5)CC[C@]4(C)C3C[C@@H](O)[C@@]21C (some centres unmarked) [Y],10 µg/mL,,
C[C@@H](CC1CCOC1=O)C1CCC2C3CC[C@@H]4C[C@@H](NCCN)CC[C@]4(C)C3CC[C@@]21C (mixture of isomers) [Compound-K],10 µg/mL,0.31 µg/mL,
COC(=O)CC[C@H](C)C1CCC2C3C[C@@H](O)[C@@H]4C[C@@H](NCCCOCCCCOCCCN)CC[C@]4(C)C3CC[C@@]21C (some centres unmarked) [AF],10 µg/mL,2.41 µg/mL,
C[C@@H](CNS(C)(=O)=O)C1CCC2C3CC[C@@H]4C[C@@H](NCCN)CC[C@]4(C)C3CC[C@@]21C (some centres unmarked) [Compound-G],10 µg/mL,,
COC(=O)CC[C@H](C)C1CCC2C3CC(O)[C@@H]4C[C@@H](NCCNC(C)C)CC[C@]4(C)C3CC[C@@]21C (some centres unmarked) [R],,0.24 µg/mL,
COC(=O)CC[C@H](C)C1CCC2C3CC[C@@H]4C[C@@H](NCCN)CC[C@]4(C)C3C[C@@H](O)[C@@]21C (some centres unmarked) [AC],10 µg/mL,0.47 µg/mL,
COC(=O)CC[C@H](C)C1CCC2C3CC[C@@H]4C[C@@H](NCc5ccccn5)CC[C@]4(C)C3C[C@@H](O)[C@@]21C (some centres unmarked) [X],10 µg/mL,,
COC(=O)CC[C@H](C)C1CCC2C3C(O)C[C@@H]4C[C@@H](NCCN)CC[C@]4(C)C3CC[C@@]21C (some centres unmarked) [T],10 µg/mL,2.77 µg/mL,
COC(=O)NC[C@@H](C)C1CCC2C3CC[C@H]4C[C@@H](NCCN)CC[C@]4(C)C3CC[C@@]21C (some centres unmarked) [Compound-H],,0.26 µg/mL,"PBMC Proliferation ASSAY IC50 [1, 4]: 0.44 µg/mL"
C[C@H](CCC(=O)O)C1CCC2C3C(CC[C@@]21C)[C@@]1(C)CC[C@H](NCCN)C[C@H]1C[C@H]3O (some centres unmarked) [E],> 10 µg/mL,,"IC50 [1, 3]: > 10 µg/mL"
COC(=O)CC[C@H](C)C1CCC2C3CC[C@@H]4C[C@@H](NCCC5CCCN5C)CC[C@]4(C)C3C[C@@H](O)[C@@]21C (some centres unmarked) [Z],10 µg/mL,0.71 µg/mL,
